# Earlier results, collected in PubChem BioAssay AID1259409 (Chemical Carcinogenesis Research Information System (CCRIS), 2018).
# Where “and” joins values, the source holds several entries; their conditions need not be identical. Equal entries are not always repeated.
# Tested on: rodent chemically induced tumor inhibition, incidence and multiplicity
# Test: CCRIS tumor inhibitor studies
structure (smiles),measurement,setting,value
C=C1CC[C@H]2C(C)(C)CCC[C@]2(C)[C@H]1CO,"tumour outcome (control, treated, inhibition, significance)","Carcinogen: 7,12-DIMETHYLBENZ[A]ANTHRACENE [57-97-6], Dose [Inhibitor]: 85 NMOL/G IN 0.1 ML ACETONE 2X/WK FOR 20 WK 1 HR PRIOR TO EACH PROMOTER DOSE BEGINNING 1 WK POST LAST CARCINOGEN DOSE (S, Route [Inhibitor]: DERMAL, Species: MOUSE, Strain/Sex: ICR/FEMALE, Target Tissue: Type of Lesion: SKIN: PAPILLOMA, Dose [Carcinogen]: 390 NMOL IN 0.1 ML ACETONE ONCE (STUDY DURATION: 21 WK), Promoter: 12-O-TETRADECANOYL-13-ACETATE [16561-29-8]","100%, 65%, 35%, not calculated"
CC(=O)C1CC2CC1CC2N=C=S (configuration not stated),"tumour outcome (control, treated, inhibition, significance)","Carcinogen: 7,12-DIMETHYLBENZ[A]ANTHRACENE, 57-97-6, Dose [Inhibitor]: 0, 100 UMOL/D IN 0.5 ML EMULPHOR EL-620 FOR 5 CONSECUTIVE DAYS BEGINNING AT 47 D OF AGE (STUDY DURATION: 155 D), Route [Inhibitor]: GAVAGE, Species: RAT, Strain/Sex: SPRAGUE-DAWLEY/FEMALE, Target Tissue: Type of Lesion: MAMMARY GLAND: TUMOR, Dose [Carcinogen]: 8 MG IN 1 ML SESAME OIL ONCE AT 50 D OF AGE, Promoter: NONE USED","17/25 (68%), 8/20 (40%), 41%, not significant"
CC[C@H](C)C(=O)O[C@H]1CCC=C2C=C[C@H](C)[C@H](CC[C@@H]3C[C@@H](O)CC(=O)O3)[C@H]21,"tumour outcome (control, treated, inhibition, significance)","Carcinogen: N-ETHYL-N-HYDROXYETHYLNITROSAMINE, 13147-25-6, Dose [Inhibitor]: 0, 0.02% IN DIET BEGINNING 23 WK POST LAST CARCINOGEN DOSE AND CONTINUING TO WK 40 (STUDY DURATION: 40 WK), Route [Inhibitor]: ORAL, Species: RAT, Strain/Sex: WISTAR/MALE, Target Tissue: Type of Lesion: KIDNEY: RENAL CELL TUMORS, Dose [Carcinogen]: 0.1% IN DIET FOR 2 WK, Promoter: NONE USED","6/17 (35%), 1/10 (10%), 71%, not calculated"
CC1=C(/C=C/C(C)=C\C=C\C(C)=C\C(=O)O)C(C)(C)CCC1,outcome,"Carcinogen: 4-(Methylnitrosamino)-1-(3-pyridyl)-1-butanone [64091-91-4] (NNK), Dose [Inhibitor]: 0, 7.5, 15, 30 mg/kg in diet for 17 wks, study duration 17 wks, Dose [Inhibitor]: 0, 7.5, 15, 30 mg/kg in diet for 17 wks, study duration 17 wks, Route [Inhibitor]: Oral, Species: Mouse, Strain/Sex: A/J/Male, Target Tissue: Type of Lesion: Lung, Dose [Carcinogen]: 100 mg NNK/kg bw once at 8 wks of age, study duration 17 wks",14/14 (100%); 13/14 (93%); 14/14 (100%); 11/13 (85%)
same,"tumour outcome (control, treated, inhibition, significance)","Carcinogen: N-METHYL-N-NITROSOUREA, 684-93-5, Dose [Inhibitor]: 0, 3.3 UG/KG OF DIET FOR 147 D (STUDY DURATION: 150 D), Route [Inhibitor]: ORAL, Species: RAT, Strain/Sex: SPRAGUE-DAWLEY/FEMALE, Target Tissue: Type of Lesion: MAMMARY GLAND: ADENOCARCINOMA, Dose [Carcinogen]: 50 MG/KG BW ONCE 3 D BEFORE INITIAL INHIBITOR DOSE, Promoter: NONE USED","25/25 (100%), 25/25 (100%), 0%, not significant"
same,"tumour outcome (control, treated, inhibition, significance)","Carcinogen: N-METHYL-N-NITROSOUREA, 684-93-5, Dose [Inhibitor]: 0, 10 UG/KG OF DIET FOR 147 D (STUDY DURATION: 150 D), Route [Inhibitor]: ORAL, Species: RAT, Strain/Sex: SPRAGUE-DAWLEY/FEMALE, Target Tissue: Type of Lesion: MAMMARY GLAND: ADENOCARCINOMA, Dose [Carcinogen]: 50 MG/KG BW ONCE 3 D BEFORE INITIAL INHIBITOR DOSE, Promoter: NONE USED","25/25 (100%), 25/25 (100%), 0%, not significant"
same,"tumour outcome (control, treated, inhibition, significance)","Carcinogen: N-METHYL-N-NITROSOUREA, 684-93-5, Dose [Inhibitor]: 0, 50 MG/KG OF DIET BEGINNING 1 WK PRIOR TO CARCINOGEN DOSE (STUDY DURATION: 14 MO), Route [Inhibitor]: ORAL, Species: RAT, Strain/Sex: WISTAR-UNILEVER/MALE, Target Tissue: Type of Lesion: PROSTATE: ADENOCARCINOMA, Dose [Carcinogen]: 30 MG/KG BW ONCE ADMINISTERED TO RATS PRETREATED WITH 50 MG OF CYPROTERONE ACETATE BY GAVAGE FOR 21 CONSECUTIVE DAYS THE, Promoter: TESTOSTERONE, 58-22-0","22/34 (65%), 8/40 (20%), 70%, p<0.001"
same,"tumour outcome (control, treated, inhibition, significance)","Carcinogen: N-METHYL-N-NITROSOUREA, 684-93-5, Dose [Inhibitor]: 0, 60 MG/KG OF DIET FOR 147 D (STUDY DURATION: 150 D), Route [Inhibitor]: ORAL, Species: RAT, Strain/Sex: SPRAGUE-DAWLEY/FEMALE, Target Tissue: Type of Lesion: MAMMARY GLAND: ADENOCARCINOMA, Dose [Carcinogen]: 50 MG/KG BW ONCE 3 D BEFORE INITIAL INHIBITOR DOSE, Promoter: NONE USED","25/25 (100%), 24/25 (96%), 4%, not significant"
same,"tumour outcome (control, treated, inhibition, significance)","Carcinogen: N-METHYL-N-NITROSOUREA, 684-93-5, Dose [Inhibitor]: 0, 60 MG/KG OF DIET FOR DURATION OF STUDY BEGINNING 1 WK POST CARCINOGEN DOSE (STUDY DURATION: 5 MO), Route [Inhibitor]: ORAL, Species: RAT, Strain/Sex: SPRAGUE-DAWLEY/FEMALE, Target Tissue: Type of Lesion: MAMMARY GLAND: TUMOR, Dose [Carcinogen]: 50 MG/KG BW ONCE, Promoter: NONE USED","23/24 (96%), 9/12 (75%), 22%, p=0.1 and 29/30 (97%), 24/30 (80%), 18%, p=0.1"
same,"tumour outcome (control, treated, inhibition, significance)","Carcinogen: N-METHYL-N-NITROSOUREA, 684-93-5, Dose [Inhibitor]: 0, 100 MG/KG OF DIET BEGINNING 1 WK PRIOR TO CARCINOGEN DOSE (STUDY DURATION: 14 MO), Route [Inhibitor]: ORAL, Species: RAT, Strain/Sex: WISTAR-UNILEVER/MALE, Target Tissue: Type of Lesion: PROSTATE: ADENOCARCINOMA, Dose [Carcinogen]: 30 MG/KG BW ONCE ADMINISTERED TO RATS PRETREATED WITH 50 MG OF CYPROTERONE ACETATE BY GAVAGE FOR 21 CONSECUTIVE DAYS THE, Promoter: TESTOSTERONE, 58-22-0","22/34 (65%), 7/38 (18%), 72%, p<0.001"
same,"tumour outcome (control, treated, inhibition, significance)","Carcinogen: N-METHYL-NITROSOUREA [684-93-5], Dose [Inhibitor]: 60 MG/KG DIET BEGINNING 3 D POST-CARCINOGEN DOSE (STUDY DURATION: 150 D), Route [Inhibitor]: ORAL, Species: RAT, Strain/Sex: SPRAGUE-DAWLEY/FEMALE, Target Tissue: Type of Lesion: MAMMARY GLAND: ADENOCARCINOMA, Dose [Carcinogen]: 50 MG/KG BW ONCE AT 50 D OF AGE","25/25 (100%); 24/25 (96%), 4%, not significant"
same,"tumour outcome (control, treated, inhibition, significance)","Carcinogen: N-NITROSO-N-METHYLUREA, 684-93-5, Dose [Inhibitor]: 0, 60 MG/KG OF DIET FOR 3 MO BEGINNING 1 WK POST CARCINOGEN DOSE (STUDY DURATION: 100 D), Route [Inhibitor]: ORAL, Species: RAT, Strain/Sex: SPRAGUE-DAWLEY/FEMALE, Target Tissue: Type of Lesion: MAMMARY GLAND: TUMOR, Dose [Carcinogen]: 50 MG/KG BW ONCE, Promoter: NONE USED","100%, 58%, 42%, p<0.002"
same,"tumour outcome (control, treated, inhibition, significance)","Carcinogen: N-NITROSO-N-METHYLUREA, 684-93-5, Dose [Inhibitor]: 0, 60 MG/KG OF DIET FOR 4.5 MO BEGINNING 1 WK POST CARCINOGEN DOSE (STUDY DURATION: 100 D), Route [Inhibitor]: ORAL, Species: RAT, Strain/Sex: SPRAGUE-DAWLEY/FEMALE, Target Tissue: Type of Lesion: MAMMARY GLAND: TUMOR, Dose [Carcinogen]: 50 MG/KG BW ONCE, Promoter: NONE USED","96%, 75%, 22%, not significant"
same,"tumour outcome (control, treated, inhibition, significance)","Carcinogen: N-NITROSO-N-METHYLUREA, 684-93-5, Dose [Inhibitor]: 0, 120 MG/KG OF DIET FOR 3 MO BEGINNING 1 WK POST CARCINOGEN DOSE (STUDY DURATION: 100 D), Route [Inhibitor]: ORAL, Species: RAT, Strain/Sex: SPRAGUE-DAWLEY/FEMALE, Target Tissue: Type of Lesion: MAMMARY GLAND: TUMOR, Dose [Carcinogen]: 50 MG/KG BW ONCE, Promoter: NONE USED","100%, 25%, 75%, p<0.001"
same,"tumour outcome (control, treated, inhibition, significance)","Carcinogen: N-NITROSO-N-METHYLUREA, 684-93-5, Dose [Inhibitor]: 0, 120 MG/KG OF DIET FOR 4.5 MO BEGINNING 1 WK POST CARCINOGEN DOSE (STUDY DURATION: 100 D), Route [Inhibitor]: ORAL, Species: RAT, Strain/Sex: SPRAGUE-DAWLEY/FEMALE, Target Tissue: Type of Lesion: MAMMARY GLAND: TUMOR, Dose [Carcinogen]: 50 MG/KG BW ONCE, Promoter: NONE USED","96%, 42%, 56%, p<0.001"
CC1=C(/C=C/C(C)=C/C=C/C(C)=C/C(=O)Nc2nn[nH]n2)C(C)(C)CCC1,"tumour outcome (control, treated, inhibition, significance)","Carcinogen: N-BUTYL-N-(4-HYDROXYBUTYL)NITROSAMINE, 3817-11-6, Dose [Inhibitor]: 1.5 MMOL/KG DIET DAILY FOR 159 D STARTING 1 WK AFTER THE FINAL CARCINOGEN DOSE (STUDY DURATION: 216 D), Route [Inhibitor]: ORAL, Species: MOUSE, Strain/Sex: BDF/MALE, Target Tissue: Type of Lesion: URINARY BLADDER: TRANSITIONAL CELL CARCINOMA, Dose [Carcinogen]: 7.5 MG 1/WK FOR 8 WK, Promoter: NONE USED","29/98 (30%), 15/97 (16%), 47%, p<0.05"
same,"tumour outcome (control, treated, inhibition, significance)","Carcinogen: N-BUTYL-N-(4-HYDROXYBUTYL)NITROSAMINE, 3817-11-6, Dose [Inhibitor]: 1.5 MMOL/KG/D IN DIET FOR 159 D STARTING 1 WK POST CARCINOGEN TREATMENT (STUDY DURATION: 216 D), Route [Inhibitor]: ORAL, Species: MOUSE, Strain/Sex: BDF/MALE, Target Tissue: Type of Lesion: URINARY BLADDER: TRANSITIONAL CELL CARCINOMA, Dose [Carcinogen]: 7.5 MG 1/WK FOR 8 WK, Promoter: NONE USED","29/98 (30%), 15/97 (16%), 47%, p<0.05"
